# System: Pichia kudriavzevii
# Assay: Antifungal activity against 14 days cultured Candida krusei isolated from neutropenic subject with AML or MDS pharynx after 12 days of prophylaxis by broth microdilution method
# Type: functional
# Conditions: not given
row,SMILES,MIC
1,CCC(C)n1ncn(-c2ccc(N3CCN(c4ccc(OCC5COC(Cn6cncn6)(c6ccc(Cl)cc6Cl)O5)cc4)CC3)cc2)c1=O (configuration not stated) [ITRACONAZOLE],0.25 µg/mL

# System: Nakaseomyces glabratus
# Assay: Antifungal activity against Candida glabrata isolated from neutropenic subject 1497 with AML or MDS pharynx receiving antifungal drug after 61 days prophylaxis by broth microdilution method
# Type: functional
# Conditions: not given
row,SMILES,MIC
1,CCC(C)n1ncn(-c2ccc(N3CCN(c4ccc(OCC5COC(Cn6cncn6)(c6ccc(Cl)cc6Cl)O5)cc4)CC3)cc2)c1=O (configuration not stated) [ITRACONAZOLE],8 µg/mL

# System: Nakaseomyces glabratus
# Assay: Antifungal activity against Candida glabrata isolated from neutropenic subject 1491 with AML or MDS pharynx after 23 days prophylaxis by broth microdilution method
# Type: functional
# Conditions: 552 h
row,SMILES,MIC
1,CCC(C)n1ncn(-c2ccc(N3CCN(c4ccc(OCC5COC(Cn6cncn6)(c6ccc(Cl)cc6Cl)O5)cc4)CC3)cc2)c1=O (configuration not stated) [ITRACONAZOLE],1 µg/mL

# System: Candida albicans
# Assay: Antifungal activity against Candida albicans isolated from HSCT recipients with acute or chronic GVHD receiving posaconazole assessed as maximum MIC by broth microdilution method
# Type: functional
# Conditions: not given
row,SMILES,MIC
1,CCC(C)n1ncn(-c2ccc(N3CCN(c4ccc(OCC5COC(Cn6cncn6)(c6ccc(Cl)cc6Cl)O5)cc4)CC3)cc2)c1=O (configuration not stated) [ITRACONAZOLE],0.25 µg/mL

# System: Nakaseomyces glabratus
# Assay: Antifungal activity against Candida glabrata isolated from neutropenic subject 1497 with AML or MDS pharynx after 61 days prophylaxis by broth microdilution method
# Type: functional
# Conditions: not given
row,SMILES,MIC
1,CCC(C)n1ncn(-c2ccc(N3CCN(c4ccc(OCC5COC(Cn6cncn6)(c6ccc(Cl)cc6Cl)O5)cc4)CC3)cc2)c1=O (configuration not stated) [ITRACONAZOLE],0.06 µg/mL

# System: Nakaseomyces glabratus
# Assay: Antifungal activity against Candida glabrata isolated from HSCT recipient 975 with acute or chronic GVHD mouth after 112 days prophylaxis by broth microdilution method
# Type: functional
# Conditions: not given
row,SMILES,MIC
1,CCC(C)n1ncn(-c2ccc(N3CCN(c4ccc(OCC5COC(Cn6cncn6)(c6ccc(Cl)cc6Cl)O5)cc4)CC3)cc2)c1=O (configuration not stated) [ITRACONAZOLE],0.25 µg/mL

# System: Nakaseomyces glabratus
# Assay: Antifungal activity against 176 days cultured Candida glabrata isolated from HSCT recipient with acute or chronic GVHD mouth receiving antifungal therapy for 168 days after 113 days of prophylaxis by broth microdilution method
# Type: functional
# Conditions: not given
row,SMILES,MIC
1,CCC(C)n1ncn(-c2ccc(N3CCN(c4ccc(OCC5COC(Cn6cncn6)(c6ccc(Cl)cc6Cl)O5)cc4)CC3)cc2)c1=O (configuration not stated) [ITRACONAZOLE],2 µg/mL

# System: Nakaseomyces glabratus
# Assay: Antifungal activity against Candida glabrata isolated from neutropenic subject 1187 with AML or MDS stool after 22 days prophylaxis by broth microdilution method
# Type: functional
# Conditions: 528 h
row,SMILES,MIC
1,CCC(C)n1ncn(-c2ccc(N3CCN(c4ccc(OCC5COC(Cn6cncn6)(c6ccc(Cl)cc6Cl)O5)cc4)CC3)cc2)c1=O (configuration not stated) [ITRACONAZOLE],1 µg/mL

# System: Nakaseomyces glabratus
# Assay: Antifungal activity against Candida glabrata isolated from HSCT recipient 270 with acute or chronic GVHD mouth after 108 days prophylaxis by broth microdilution method
# Type: functional
# Conditions: not given
row,SMILES,MIC
1,CCC(C)n1ncn(-c2ccc(N3CCN(c4ccc(OCC5COC(Cn6cncn6)(c6ccc(Cl)cc6Cl)O5)cc4)CC3)cc2)c1=O (configuration not stated) [ITRACONAZOLE],0.125 µg/mL

# System: Nakaseomyces glabratus
# Assay: Antifungal activity against 12 days cultured Candida glabrata isolated from HSCT recipient with acute or chronic GVHD mouth receiving antifungal therapy for 143 days after 116 days of prophylaxis by broth microdilution method
# Type: functional
# Conditions: not given
row,SMILES,MIC
1,CCC(C)n1ncn(-c2ccc(N3CCN(c4ccc(OCC5COC(Cn6cncn6)(c6ccc(Cl)cc6Cl)O5)cc4)CC3)cc2)c1=O (configuration not stated) [ITRACONAZOLE],4 µg/mL

# System: Nakaseomyces glabratus
# Assay: Antifungal activity against 3 days cultured Candida glabrata isolated from neutropenic subject with AML or MDS stool receiving antifungal therapy for 25 days after 3 days of prophylaxis by broth microdilution method
# Type: functional
# Conditions: not given
row,SMILES,MIC
1,CCC(C)n1ncn(-c2ccc(N3CCN(c4ccc(OCC5COC(Cn6cncn6)(c6ccc(Cl)cc6Cl)O5)cc4)CC3)cc2)c1=O (configuration not stated) [ITRACONAZOLE],1 µg/mL

# System: Nakaseomyces glabratus
# Assay: Antifungal activity against Candida glabrata isolated from HSCT recipient 497 with acute or chronic GVHD mouth after 114 days prophylaxis by broth microdilution method
# Type: functional
# Conditions: not given
row,SMILES,MIC
1,CCC(C)n1ncn(-c2ccc(N3CCN(c4ccc(OCC5COC(Cn6cncn6)(c6ccc(Cl)cc6Cl)O5)cc4)CC3)cc2)c1=O (configuration not stated) [ITRACONAZOLE],1 µg/mL

# System: Candida albicans
# Assay: Antifungal activity against Candida albicans isolated from HSCT recipients with acute or chronic GVHD prior to initiation of posaconazole therapy assessed as maximum MIC by broth microdilution method
# Type: functional
# Conditions: not given
row,SMILES,MIC
1,CCC(C)n1ncn(-c2ccc(N3CCN(c4ccc(OCC5COC(Cn6cncn6)(c6ccc(Cl)cc6Cl)O5)cc4)CC3)cc2)c1=O (configuration not stated) [ITRACONAZOLE],16 µg/mL

# System: Nakaseomyces glabratus
# Assay: Antifungal activity against Candida glabrata isolated from neutropenic subjects with AML or MDS prior to initiation of posaconazole therapy by broth microdilution method
# Type: functional
# Conditions: not given
SMILES,MIC50,MIC90
CCC(C)n1ncn(-c2ccc(N3CCN(c4ccc(OCC5COC(Cn6cncn6)(c6ccc(Cl)cc6Cl)O5)cc4)CC3)cc2)c1=O (configuration not stated) [ITRACONAZOLE],0.25 µg/mL,8 µg/mL

# System: Nakaseomyces glabratus
# Assay: Antifungal activity against 43 days cultured Candida glabrata isolated from HSCT recipient with acute or chronic GVHD mouth receiving antifungal therapy for 172 days after 114 days of prophylaxis by broth microdilution method
# Type: functional
# Conditions: not given
row,SMILES,MIC
1,CCC(C)n1ncn(-c2ccc(N3CCN(c4ccc(OCC5COC(Cn6cncn6)(c6ccc(Cl)cc6Cl)O5)cc4)CC3)cc2)c1=O (configuration not stated) [ITRACONAZOLE],2 µg/mL

# System: Nakaseomyces glabratus
# Assay: Antifungal activity against 1 day cultured Candida glabrata isolated from HSCT recipient with acute or chronic GVHD mouth after 17 days of prophylaxis by broth microdilution method
# Type: functional
# Conditions: not given
row,SMILES,MIC
1,CCC(C)n1ncn(-c2ccc(N3CCN(c4ccc(OCC5COC(Cn6cncn6)(c6ccc(Cl)cc6Cl)O5)cc4)CC3)cc2)c1=O (configuration not stated) [ITRACONAZOLE],> 8 µg/mL

# System: Nakaseomyces glabratus
# Assay: Antifungal activity against Candida glabrata isolated from HSCT recipient 975 with acute or chronic GVHD mouth receiving antifungal drug after 112 days prophylaxis by broth microdilution method
# Type: functional
# Conditions: not given
row,SMILES,MIC
1,CCC(C)n1ncn(-c2ccc(N3CCN(c4ccc(OCC5COC(Cn6cncn6)(c6ccc(Cl)cc6Cl)O5)cc4)CC3)cc2)c1=O (configuration not stated) [ITRACONAZOLE],8 µg/mL

# System: Nakaseomyces glabratus
# Assay: Antifungal activity against 35 days cultured Candida glabrata isolated from HSCT recipient with acute or chronic GVHD mouth receiving antifungal therapy for 165 days after 138 days of prophylaxis by broth microdilution method
# Type: functional
# Conditions: not given
row,SMILES,MIC
1,CCC(C)n1ncn(-c2ccc(N3CCN(c4ccc(OCC5COC(Cn6cncn6)(c6ccc(Cl)cc6Cl)O5)cc4)CC3)cc2)c1=O (configuration not stated) [ITRACONAZOLE],8 µg/mL

# System: Nakaseomyces glabratus
# Assay: Antifungal activity against 16 days cultured Candida glabrata isolated from HSCT recipient with acute or chronic GVHD mouth receiving antifungal therapy for 31 days after 28 days of prophylaxis by broth microdilution method
# Type: functional
# Conditions: not given
row,SMILES,MIC
1,CCC(C)n1ncn(-c2ccc(N3CCN(c4ccc(OCC5COC(Cn6cncn6)(c6ccc(Cl)cc6Cl)O5)cc4)CC3)cc2)c1=O (configuration not stated) [ITRACONAZOLE],< 1 µg/mL

# System: Nakaseomyces glabratus
# Assay: Antifungal activity against Candida glabrata isolated from HSCT recipients with acute or chronic GVHD receiving fluconazole by broth microdilution method
# Type: functional
# Conditions: not given
SMILES,MIC50,MIC90
CCC(C)n1ncn(-c2ccc(N3CCN(c4ccc(OCC5COC(Cn6cncn6)(c6ccc(Cl)cc6Cl)O5)cc4)CC3)cc2)c1=O (configuration not stated) [ITRACONAZOLE],1 µg/mL,16 µg/mL

# Source: ChEMBL document CHEMBL1687752, “Impact of antifungal prophylaxis on colonization and azole susceptibility of Candida species” (2009)
